# According to patent publication US12180187B2, “1-phenyl-5-azinylpyrazolyl-3-oxyalkyl acids and their use for controlling unwanted plant growth” (BAYER AKTIENGESELLSCHAFT, priority 2019, dated 2024):
# Columns and labels:
# [1] = test system: ECHGC; test: Pre-emergence action at 320 g/ha against ECHGC; assay type: in vivo, Echinochloa crus-galli; details: visual scoring after about 3 weeks vs untreated controls
# In short: (§1)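 Application: aqueous WP or EC with 0.5% additive on soil covering seeds, 600 l/ha. Read-out: visual percent damage after ~3 weeks in greenhouse, untreated pots as reference.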
# [2] = test system: ABUTH; test: Pre-emergence action against ABUTH, 1280 g/ha; assay type: in vivo, Abutilon theophrasti; details: scored visually after about 3 weeks vs untreated controls (100% = plants have died)
# In short: (§2)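 In greenhouse pots of sandy loam, sown weed seeds were covered with soil and treated pre-emergence with the compound in water (600 L/ha, 0.5% additive). Efficacy was assessed visually as percent of untreated control after about 3 weeks.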
# [3] = test system: MATIN; test: Pre-emergence action against MATIN, 1280 g/ha; assay type: in vivo, Tripleurospermum inodorum (Matricaria inodora); details: scored visually after about 3 weeks vs untreated controls (100% = plants have died)
# In short: as §2
# [4] = test system: SETVI; test: Pre-emergence action against SETVI, 1280 g/ha; assay type: in vivo, Setaria viridis; details: visual scoring after about 3 weeks vs untreated controls, 100% = plants have died, 0% = like control plants
# In short: as §2
# [5] = test system: POLCO; test: Pre-emergence action at 320 g/ha against POLCO; assay type: in vivo, Fallopia convolvulus (Polygonum convolvulus); details: visual scoring after about 3 weeks vs untreated controls
# In short: as §1
# [6] = test system: VIOTR; test: Pre-emergence action at 320 g/ha against VIOTR; assay type: in vivo, Viola tricolor; details: dosage 320 g/ha
# In short: as §1
# [7] = test system: ABUTH; test: Post-emergence action against ABUTH, 1.28 kg/ha; assay type: in vivo, Abutilon theophrasti; details: dosage 1280 g/ha, visual rating about 3 weeks after treatment vs untreated controls (100% = plants died)
# In short: (§3)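 Visual rating against untreated plants about 3 weeks after spraying gives % activity, where 0% means like controls and 100% means plants died. Plants were treated post-emergence at the one-leaf stage with compound formulated as wettable powder or emulsion concentrate, applied at 600 L water/ha plus 0.5% additive.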
# [8] = test system: ECHCG; test: Post-emergence action against ECHCG, 1.28 kg/ha; assay type: in vivo, Echinochloa crus-galli; details: dosage 1280 g/ha, visual rating about 3 weeks after treatment vs untreated controls
# In short: as §3
# [9] = test system: LOLRI; test: Post-emergence action against LOLRI, 1.28 kg/ha; assay type: in vivo, Lolium rigidum; details: dosage 1280 g/ha, visual rating about 3 weeks after treatment vs untreated controls
# In short: as §3
# [10] = test system: LOLRI; test: Pre-emergence action at 320 g/ha against LOLRI; assay type: in vivo, Lolium rigidum; details: visual scoring after about 3 weeks vs untreated controls
# In short: as §1
# [11] = test system: DIGSA; test: Pre-emergence action at 320 g/ha against DIGSA; assay type: in vivo, Digitaria sanguinalis; details: visual scoring after about 3 weeks vs untreated controls
# In short: as §1
# [12] = test system: AMARE; test: Pre-emergence action against AMARE, 1280 g/ha; assay type: in vivo, Amaranthus retroflexus; details: scored visually after about 3 weeks vs untreated controls (100% = plants have died)
# In short: as §2
# [13] = test system: LOLRI; test: Pre-emergence action against LOLRI, 1280 g/ha; assay type: in vivo, Lolium rigidum; details: visual scoring after about 3 weeks vs untreated controls, 100% = plants have died, 0% = like control plants
# In short: as §2
# [14] = test system: ALOMY; test: Pre-emergence action against ALOMY, 1280 g/ha; assay type: in vivo, Alopecurus myosuroides; details: visual scoring after about 3 weeks vs untreated controls, 100% = plants have died, 0% = like control plants
# In short: as §2
# [15] = test system: ECHCG; test: Pre-emergence action against ECHCG, 1280 g/ha; assay type: in vivo, Echinochloa crus-galli; details: visual scoring after about 3 weeks vs untreated controls, 100% = plants have died, 0% = like control plants
# In short: as §2
# [16] = test system: ALOMY; test: Post-emergence action against ALOMY, 1.28 kg/ha; assay type: in vivo, Alopecurus myosuroides; details: dosage 1280 g/ha, visual rating about 3 weeks after treatment vs untreated controls
# In short: as §3
# [17] = test system: STEME; test: Pre-emergence action against STEME, 1280 g/ha; assay type: in vivo, Stellaria media; details: scored visually after about 3 weeks vs untreated controls (100% = plants have died)
# In short: as §2
# [18] = test system: ABUTH; test: Pre-emergence action at 320 g/ha against ABUTH; assay type: in vivo, Abutilon theophrasti; details: greenhouse, scored visually after about 3 weeks vs untreated controls, 100% = plants have died, 0% = like control plants
# Excerpt: b) Seeds of monocotyledonous and dicotyledonous weed plants and crop plants are placed in plastic or organic planting pots and covered with soil. The compounds of the invention, formulated in the form of wettable powders (WP) or as emulsion concentrates (EC), are then applied onto the surface of the covering soil as aqueous suspension or emulsion with addition of 0.5% additive at a water application rate of 600 l/ha (converted). After the treatment, the pots are placed in a greenhouse and kept under good growth conditions for the trial plants. After about 3 weeks, the effect of the preparations is scored visually in comparison with untreated controls as percentages. For example, 100% activity=the plants have died, 0% activity=like control plants. Tables 13 to 26 below show the effects of selected compounds of the general formula (I) on various harmful plants and at an application rate corresponding to 320 g/ha, which were obtained by the experimental procedure mentioned above.
# [19] = test system: MATIN; test: Pre-emergence action at 320 g/ha against MATIN; assay type: in vivo, Tripleurospermum inodorum (Matricaria inodora); details: visual scoring after about 3 weeks vs untreated controls
# In short: as §1
# [20] = test system: POAAN; test: Post-emergence action against POAAN, 1.28 kg/ha; assay type: in vivo, Poa annua; details: dosage 1280 g/ha, visual rating about 3 weeks after treatment vs untreated controls
# In short: as §3
# [21] = test system: DIGSA; test: Post-emergence action against DIGSA, 1.28 kg/ha; assay type: in vivo, Digitaria sanguinalis; details: dosage 1280 g/ha, visual rating about 3 weeks after treatment vs untreated controls
# In short: as §3
# [22] = test system: ALOMY; test: Pre-emergence action at 320 g/ha against ALOMY; assay type: in vivo, Alopecurus myosuroides; details: scored visually after about 3 weeks vs untreated controls (100% = plants have died)
# In short: as §1
# [23] = test system: SETVI; test: Post-emergence action against SETVI, 1.28 kg/ha; assay type: in vivo, Setaria viridis; details: dosage 1280 g/ha, visual rating about 3 weeks after treatment vs untreated controls
# In short: as §3
# [24] = test system: VERPE; test: Post-emergence action against VERPE, 1.28 kg/ha; assay type: in vivo, Veronica persica; details: dosage 1280 g/ha, visual rating about 3 weeks after treatment vs untreated controls (100% = plants died)
# In short: as §3
# [25] = test system: SETVI; test: Pre-emergence action at 320 g/ha against SETVI; assay type: in vivo, Setaria viridis; details: visual scoring after about 3 weeks vs untreated controls
# In short: as §1
# [26] = test system: MATIN; test: Post-emergence action against MATIN, 1.28 kg/ha; assay type: in vivo, Tripleurospermum inodorum (Matricaria inodora); details: dosage 1280 g/ha, visual rating about 3 weeks after treatment vs untreated controls (100% = plants died)
# In short: as §3
# [27] = test system: STEME; test: Post-emergence action against STEME, 1.28 kg/ha; assay type: in vivo, Stellaria media; details: dosage 1280 g/ha, visual rating about 3 weeks after treatment vs untreated controls (100% = plants died)
# In short: as §3
# [28] = test system: DIGSA; test: Pre-emergence action against DIGSA, 1280 g/ha; assay type: in vivo, Digitaria sanguinalis; details: visual scoring after about 3 weeks vs untreated controls, 100% = plants have died, 0% = like control plants
# In short: as §2
# [29] = test system: POAAN; test: Pre-emergence action against POAAN, 1280 g/ha; assay type: in vivo, Poa annua; details: visual scoring after about 3 weeks vs untreated controls, 100% = plants have died, 0% = like control plants
# In short: as §2
# [30] = test system: AVEFA; test: Pre-emergence action at 320 g/ha against AVEFA; assay type: in vivo; details: visual scoring after about 3 weeks vs untreated controls
# In short: as §1
# [31] = test system: KCHSC; test: Pre-emergence action against KCHSC, 1280 g/ha; assay type: in vivo, Bassia scoparia; details: scored visually after about 3 weeks vs untreated controls (100% = plants have died)
# In short: as §2
# [32] = test system: AMARE; test: Pre-emergence action at 320 g/ha against AMARE; assay type: in vivo, Amaranthus retroflexus; details: visual scoring after about 3 weeks vs untreated controls
# In short: as §1
# [33] = test system: PHBPU; test: Pre-emergence action at 320 g/ha against PHBPU; assay type: in vivo; details: visual scoring after about 3 weeks vs untreated controls
# In short: as §1
# [34] = test system: VERPE; test: Pre-emergence action at 320 g/ha against VERPE; assay type: in vivo, Veronica persica; details: visual scoring after about 3 weeks vs untreated controls
# In short: as §1
# [35] = test system: VERPE; test: Pre-emergence action against VERPE, 1280 g/ha; assay type: in vivo, Veronica persica; details: scored visually after about 3 weeks vs untreated controls (100% = plants have died)
# In short: as §2
# [36] = test system: AMARE; test: Post-emergence action against AMARE, 1.28 kg/ha; assay type: in vivo, Amaranthus retroflexus; details: dosage 1280 g/ha, visual rating about 3 weeks after treatment vs untreated controls (100% = plants died)
# In short: as §3
smiles,measurement,setting,value
N#CCCOC(=O)COc1nn(-c2ccccc2F)c(-c2ccc(F)nc2)c1Br [VII-104],Pre-emergence action against ECHGC in %,[1],100%
same,Pre-emergence action against ABUTH,[2],90%
same,Pre-emergence action against MATIN,[3],100%
same,Pre-emergence action against SETVI,[4],100%
same,Pre-emergence action against POLCO in %,[5],90%
same,Pre-emergence action against VIOTR in %,[6],100%
same,Post-emergence action against ABUTH,[7],90%
same,Post-emergence action against ECHCG,[8],100%
same,Post-emergence action against LOLRI,[9],100%
same,Pre-emergence action against LOLRI in %,[10],100%
same,Pre-emergence action against DIGSA in %,[11],100%
same,Pre-emergence action against AMARE,[12],100%
same,Pre-emergence action against LOLRI,[13],100%
same,Pre-emergence action against ALOMY,[14],100%
same,Pre-emergence action against ECHCG,[15],100%
same,Post-emergence action against ALOMY,[16],100%
same,Pre-emergence action against STEME,[17],100%
same,Pre-emergence action at 320 g/ha against ABUTH in %,[18],80%
same,Pre-emergence action against MATIN in %,[19],100%
same,Post-emergence action against POAAN,[20],100%
same,Post-emergence action against DIGSA,[21],100%
same,Pre-emergence action at 320 g/ha against ALOMY in %,[22],100%
same,Post-emergence action against SETVI,[23],90%
same,Post-emergence action against VERPE,[24],90%
same,Pre-emergence action against SETVI in %,[25],100%
same,Post-emergence action against MATIN,[26],100%
same,Post-emergence action against STEME,[27],90%
same,Pre-emergence action against DIGSA,[28],100%
same,Pre-emergence action against POAAN,[29],100%
same,Pre-emergence action against AVEFA in %,[30],90%
same,Pre-emergence action against KCHSC,[31],90%
same,Pre-emergence action against AMARE in %,[32],100%
same,Pre-emergence action against PHBPU in %,[33],100%
same,Pre-emergence action against VERPE in %,[34],100%
same,Pre-emergence action against VERPE,[35],100%
same,Post-emergence action against AMARE,[36],90%
